Measured values from patent US12673921B2, “Substituted fluorine-containing imidazole salt compound, preparation method therefor, pharmaceutical composition thereof and use thereof” (XIAMEN VIVOHEALTHS TECHNOLOGY CO., LTD., priority 2019, dated 2026).

Assays:
[1] = Liver microsome stability test, Beagle dog liver microsome; format: in vitro ADME; settings: 0.5 mg protein/mL microsome, 1 μM compound, 37° C., NADPH, read-out: DLM 0.5 T1/2 (min), half life in Beagle dog liver microsome
Method: (§1) The experimental steps were as follows: • 1. Preparation of working solution • 1.1 Intermediate solution: 5 μL of a 10 mM stock solution of sample or control was taken out, and diluted with 495 μl of methanol (Conc.: 100 μM, 99% MeOH). • 1.2 Working solution: 50 μL of the intermediate solution was taken out, and diluted with 450 μL of a 100 mM potassium phosphate buffer (Conc.: 10 μM, 9.9% MeOH). • 2. Preparation of NADPH cofactor
(§2) An appropriate amount of NADPH powder was weighed, and dissolved with a MgCl2 (10 mM) solution. • 3. Liver microsome • 3.1 Liver microsome information
(§3) • 3.2 Preparation: a microsome working solution with an appropriate concentration was prepared by using a 100 mM potassium phosphate buffer. • 4. Stop solution
(§4) Glacial acetonitrile, comprising 100 ng/ml Tolbutamide and 100 ng/ml Labetalol as internal standards. • 5. Experimental procedures • 5.1 10 μL of the working solution of sample or control was added per well to all plates (T0, T5, T10, T20, T30, T60, NCF60), except for the blank group; • 5.2 80 μL of the working solution of microsome was added per well to all plates, followed by incubation for 10 min at 37° C.; • 5.3 10 μL of a 100 mM potassium phosphate buffer was added per well to NCF60, followed by incubation at 37° C. and starting timer 1;
(§5) • 5.4 After preheating, 10 μL of NADPH was added per well to each plate, and reaction was started;
(§6) Final concentration of each component in the incubation medium:
(§7) • 5.6 300 μL of the stop solution was added per well to stop the reaction; • 5.7 The system was shaken for about 10 min; • 5.8 The samples were centrifuged (4000 rpm) at 4° C. for 20 min; • 5.9 To 8 new 96-well plates, 300 μL of HPLC water was added per well, then 100 μL of the supernatant was added, mixed and subjected to LC/MS/MS.
(§8) In the above table, HLM 0.5 T1/2 (min) refers to half life (min) of compounds in human liver microsome, DLM 0.5 T1/2 (min) refers to half life (min) of compounds in Beagle dog liver microsome.

AMPK = AMPK activity assay at cell level (western blot of p-AMPKα and p-ACC in MEFs); format: cell-based, mouse; settings: MEF cells, compound 10 nM, 2 h; multiple of the ratio relative to positive control AICAR (3 mM); band brightness by Image J
Method: The ability of compounds to activate AMPK in mouse embryonic fibroblasts (MEFs) was determined, which could be specifically carried out by detecting the phosphorylation level (p-AMPKα) of threonine at the 172nd position of AMPK and the phosphorylation level (p-ACC) of serine at the 79th position of the susbtrate ACC1/ACC2 of AMPK (FIG. 1 and Table I) by western blot.
The specific method was as follows: • (1) MEFs with loxP insertion sequences or of wild-type were plated in a 6-well plate and cultured in DMEM containing 10% serum. If a gene needed to be knocked out at this time, when the density of the corresponding MEFs with loxP insertion sequences reached about 30%, an adenovirus capable of expressing cre should be added to the culture well followed by further culture for more than 24 h; • (2) When the cell density was close to 90%, the cells were provided with fresh DMEM, at the same time, a compound (final concentration 10 nM) was added to the cells, followed by culture for 2 h, with an equal volume of DMSO as the negative control, and the cells treated with the addition of AICAR (3 mM) as the positive control; • (3) After sucking up the culture solution, the cells were lysed with 200 μL of a cell lysate (its formulation was given below), then the cells were scraped from the culture dish, ultrasonicated, and subjected to low temperature centrifugation at 20000 g for 10 min; • (4) The supernatant and an equal volume of 2*SDS solution (its formulation was given below) were mixed, and subjected to SDS-PAGE in a concentration of 8%, then the protein was transferred to PVDF membrane; each PVDF membrane was blocked with 25 mL of skim milk for 1 h, and then rinsed with TBST buffer (its formulation was given below) 3 times for 10 min each time; • (5) AMPKα subunit primary antibody (Cell Signaling Technology, #2532), primary antibody of phosphothreonine at the 172nd position of AMPK (Cell Signaling Technology, #2535), ACC primary antibody (Cell Signaling Technology, #3662), or primary antibody of phosphoserine at the 79th position of ACC (Cell Signaling Technology, #3661) was diluted in a ratio of 1:1000 with a primary antibody dilution (its formulation was given below), reacted with the PVDF membrane at room temperature for 12 h, and then rinsed 3 times with TBST buffer; • (6) A 1:1000 dilution of HRP-conjugated goat anti-rabbit secondary antibody (Jackson ImmunoResearch, 111-035-003) was added, reacted at room temperature for 1 h, and then rinsed 3 times with TBST buffer; • (7) The PVDF membrane was dried, reacted in an ECL mixture (WesternBright ECL HRP substrate, Advansta) and subjected to exposure with medical X-ray, developed, finally rinsed, dried, and then scanned to obtain data related to AMPK activation.
The formulations of reagents used were: • Cell lysate: 20 mM Tris-base, pH 7.5, 150 mM NaCl, 1 mM EDTA, 1 mM EGTA, 2.5 mM Sodium pyrophosphate, 1 mM β-glycerolphosphate, 1% Triton X-100 (v/v); • 2*SDS solution: 20% Glycerol (v/v), 4% SDS (m/v), 10% β-mecaptoethanol (v/v), 0.01% Bromophenol blue (m/v); • TBST buffer: 4.84% Tris-base (m/v), 8% NaCl (m/v), 0.1% Tween-20 (v/v); • Primary antibody dilution: TBST buffer containing 5% BSA (v/v).

[2] = Liver microsome stability test, human liver microsome; format: in vitro ADME; settings: 0.5 mg protein/mL microsome, 1 μM compound, 37° C., NADPH, read-out: HLM 0.5 T1/2 (min), half life in human liver microsome
Method: as §1, §2, §3, §4, §5, §6, §7, §8

SMILES | half-life at 1 μM ([1]; liver microsomes) | Degree of AMPK activation, p-ACC/ACC (AMPK) | Degree of AMPK activation, p-AMPKα/AMPK (AMPK) | half-life at 1 μM ([2]; liver microsomes) | half-life at 1 μM ([1]; microsomes) | half-life at 1 μM ([2]; microsomes)
Cc1n(CCCCCCCCCCCCCCCCF)cc[n+]1Cc1c(Cl)cccc1Cl.Cl [IA-1] | 8.5 min | 0.42 | 1.01 | 22.3 min | – | –
Cc1n(CCCCCCCCCCCC(F)(F)C(F)(F)C(F)(F)F)cc[n+]1Cc1c(Cl)cccc1Cl.[Cl-] [IB-4] | – | 0.80 | 1.66 | – | > 145 min | > 145 min
Cc1n(CCCCCCCCCCCC(F)(F)C(F)(F)C(F)(F)C(F)(F)F)cc[n+]1Cc1c(Cl)cccc1Cl.[Cl-] [IB-16] | – | 0.77 | 2.28 | – | > 145 min | > 145 min
Cc1n(CCCCCCCCCCCC(F)(F)C(F)(F)C(F)(F)C(F)(F)C(F)(F)F)cc[n+]1Cc1c(F)cccc1Cl.[Cl-] [IB-34] | – | 0.63 | 0.98 | – | 110 min | 192 min
Cc1n(CCCCCCCCCCCC(F)(F)C(F)(F)C(F)(F)C(F)(F)C(F)(F)F)cc[n+]1Cc1c(Cl)cccc1Cl.[I-] [IB-38] | – | 1.34 | 2.06 | – | > 145 min | > 145 min
CC(C)c1n(CCCCCCCCCCCC(F)(F)C(F)(F)C(F)(F)C(F)(F)C(F)(F)F)cc[n+]1Cc1c(Cl)cccc1Cl.[Cl-] [IB-41] | – | 1.49 | 0.94 | – | 79.7 min | 85.3 min
FC(F)(F)C(F)(F)C(F)(F)C(F)(F)C(F)(F)CCCCCCCCCCCn1cc[n+](Cc2c(Cl)cccc2Cl)c1C1CC1.[Cl-] [IB-44] | – | 1.56 | 0.59 | – | 127 min | 93 min
Cc1n(CCCCCCCCCCCC(F)(F)C(F)(F)C(F)(F)C(F)(F)C(F)(F)C(F)(F)F)cc[n+]1Cc1c(Cl)cccc1Cl.[Cl-] [IB-50] | – | 1.09 | 0.65 | – | 122 min | > 145 min
Cl.FC(F)(F)C(F)(F)C(F)(F)C(F)(F)C(F)(F)C(F)(F)CCCCCCCCCCCn1cc[n+](Cc2c(Cl)cccc2Cl)c1C1CC1 [IB-56] | – | 0.99 | 0.85 | – | – | –
Cc1n(CCCCCCCCCCCC(F)(F)C(F)(F)C(F)(F)C(F)(F)C(F)(F)F)cc[n+]1Cc1c(Cl)cccc1Cl [IB-59] | – | 1.04 | 0.98 | – | – | –
Cc1n(CCCCCCCCCCCC(F)(F)C(F)(F)C(F)(F)C(F)(F)C(F)(F)F)cc[n+]1Cc1c(Cl)cccc1Cl [IB-60] | – | 1.01 | 0.94 | – | – | –
